Experimental data published in article PMC6387620 (Nature microbiology, 2018).

Tested on: E. coli BW25113
Assay type: cell-based, Escherichia coli
Details: n=3

Polymyxin B was tested. Which “Increase in Polymyxin B resistance” value did it give?
Its value is “five”.
